Data published in publication PMC5896380, “Selective imaging of cathepsin L in breast cancer by fluorescent activity-based probes” (Chemical Science, 2018).
Non-standard residues stand in square brackets, D forms with d. *: point of attachment. Phe(F5) = N[C@@H](Cc1c(F)c(F)c(F)c(F)c1F)C(=O)O; Phe(2-Cl) = N[C@@H](Cc1ccccc1Cl)C(=O)O; Phe(4-F) = N[C@@H](Cc1ccc(F)cc1)C(=O)O; ACC = NC(=O)Cc1cc(=O)oc2cc(N*)ccc12; hArg = N=C(N)NCCCC[C@H](N)C(=O)O; Tic = O=C(O)[C@@H]1Cc2ccccc2CN1; dOrn = NCCC[C@@H](N)C(=O)O; Orn = NCCC[C@H](N)C(=O)O; Bn = c1ccc(C*)cc1

Assays:
Format in all cases: biochemical
cathepsin L [1] = target: T1, cathepsin L (Homo sapiens, UniProt P07711); test: Substrate selectivity screening, rate of hydrolysis, cathepsin L; conditions: Table S4; substrate 100µM, cathepsin 5nM; pH 5.5, 37 °C; average of at least three screenings
T1 construct: made in house
Protocol: (§1) All kinetic experiments were performed using fMax (Molecular Devices) and CLARIOStar (BMG LABTECH) spectrofluorimeters operating in kinetic mode using 96-well plates. ACC-labeled substrates were screened using 355 nm and 460 nm wavelengths (excitation and emission, respectively). […] The buffer was prepared at room temperature and the enzyme kinetic studies were performed at 37 °C.
(§2) All potentially selective cathepsin L substrates were tested for their selectivity against a panel of five different cathepsins, containing cathepsins L, V, S, K and […], at concentrations of 2 μM and 100 μM. To obtain reliable results the concentration of each cathepsin was 5 nM. Substrate hydrolysis was carried out for 10 min (for cathepsin L) and for up to 60 min (for other cathepsins). Hydrolysis rates (RFU s^–1) are presented as average values from at least three screenings.

cathepsin V [2] = target: T2, cathepsin V (Homo sapiens, UniProt O60911); test: Substrate selectivity screening, rate of hydrolysis, cathepsin V; conditions: Table S4; substrate 100µM, cathepsin 5nM; pH 5.5, 37 °C; average of at least three screenings
T2 construct: made in house
Protocol: as §1, §2

cathepsin B [3] = target: T3, cathepsin B (Homo sapiens, UniProt P07858); test: Substrate selectivity screening, rate of hydrolysis, cathepsin B; conditions: Table S4; substrate 100µM, cathepsin 5nM; pH 5.5, 37 °C; average of at least three screenings
T3 construct: made in house
Protocol: as §1, §2

cathepsin S [4] = target: T4, cathepsin S (Homo sapiens, UniProt P25774); test: Substrate selectivity screening, rate of hydrolysis, cathepsin S; conditions: Table S4; substrate 100µM, cathepsin 5nM; pH 5.5, 37 °C; average of at least three screenings
T4 construct: made in house
Protocol: as §1, §2

cathepsin K [5] = target: T5, cathepsin K (Homo sapiens, UniProt P43235); test: Substrate selectivity screening, rate of hydrolysis, cathepsin K; conditions: Table S4; substrate 100µM, cathepsin 5nM; pH 5.5, 37 °C; average of at least three screenings
T5 construct: made in house
T5 sequence (P43235 115-329): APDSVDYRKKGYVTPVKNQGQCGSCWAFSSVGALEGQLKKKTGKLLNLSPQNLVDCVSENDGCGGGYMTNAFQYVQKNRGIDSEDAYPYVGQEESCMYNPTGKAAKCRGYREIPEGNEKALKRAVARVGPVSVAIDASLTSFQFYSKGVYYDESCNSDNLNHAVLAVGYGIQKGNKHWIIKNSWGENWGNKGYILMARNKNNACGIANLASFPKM
Protocol: as §1, §2

cathepsin K [6] = target: T5, cathepsin K; test: Kinetic parameters of ACC substrates with cathepsin K; conditions: for kcat/KM Cath-K: Fig. 5B, pH 5.5, 37 °C, cathepsin K 5–20 nM, triplicate, SD below 15%
Protocol: as §1
(§3) Classic substrate velocity plots were analyzed according to Michaelis–Menten kinetics and a detailed protocol for the determination of kinetic parameters for ACC-tagged substrates is found elsewhere.[56] […] Experiments were repeated at least three times and results are presented as an average. The SDs were below 15%.

cathepsin S [7] = target: T4, cathepsin S; test: Kinetic parameters of ACC substrates with cathepsin S; conditions: for kcat/KM Cath-S: Fig. 5B, pH 5.5, 37 °C, cathepsin S 5–20 nM, triplicate, SD below 15%; for kcat/KM Cat S: Table S7, four independent experiments, S.D. below 15%
Protocol: as §1, §3

cathepsin B [8] = target: T3, cathepsin B; test: Kinetic parameters of ACC substrates with cathepsin B; conditions: for kcat/KM Cath-B: Fig. 5B, pH 5.5, 37 °C, cathepsin B 4–15 nM, triplicate, SD below 15%; for kcat Cat B / kcat/KM Cat B / Km: Table S7, four independent experiments, S.D. below 15%; for Km: read-out: KM Cat B
Protocol: as §1, §3

cathepsin L [9] = target: T1, cathepsin L; test: Kinetic parameters of ACC substrates with cathepsin L; conditions: for kcat/KM Cath-L: Fig. 5B, pH 5.5, 37 °C, cathepsin L 0.1–0.5 nM, triplicate, SD below 15%; for Km: read-out: KM Cat L
Protocol: as §1, §3

cathepsin V [10] = target: T2, cathepsin V; test: Kinetic parameters of ACC substrates with cathepsin V; conditions: for kcat/KM Cath-V: Fig. 5B, pH 5.5, 37 °C, cathepsin V 10–20 nM, triplicate, SD below 15%; for kcat Cat V / kcat/KM Cat V / Km: Table S7, four independent experiments, S.D. below 15%; for Km: read-out: KM Cat V
Protocol: as §1, §3

[11] = Table S7, four independent experiments, S.D. below 15%

T2 sequence (O60911 114-334): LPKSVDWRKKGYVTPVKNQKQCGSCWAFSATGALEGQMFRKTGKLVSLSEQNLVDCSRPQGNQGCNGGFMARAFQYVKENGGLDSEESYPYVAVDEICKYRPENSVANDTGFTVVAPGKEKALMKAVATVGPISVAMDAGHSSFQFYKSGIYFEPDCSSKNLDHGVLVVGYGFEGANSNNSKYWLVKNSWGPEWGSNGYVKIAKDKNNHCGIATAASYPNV
T1 sequence (P07711 114-333): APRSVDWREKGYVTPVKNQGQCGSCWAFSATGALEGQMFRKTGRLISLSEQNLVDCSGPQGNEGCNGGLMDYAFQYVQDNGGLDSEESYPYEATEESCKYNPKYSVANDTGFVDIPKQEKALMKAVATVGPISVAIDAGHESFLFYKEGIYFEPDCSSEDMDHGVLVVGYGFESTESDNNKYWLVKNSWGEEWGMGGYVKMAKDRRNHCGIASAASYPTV
T4 sequence (P25774 115-331): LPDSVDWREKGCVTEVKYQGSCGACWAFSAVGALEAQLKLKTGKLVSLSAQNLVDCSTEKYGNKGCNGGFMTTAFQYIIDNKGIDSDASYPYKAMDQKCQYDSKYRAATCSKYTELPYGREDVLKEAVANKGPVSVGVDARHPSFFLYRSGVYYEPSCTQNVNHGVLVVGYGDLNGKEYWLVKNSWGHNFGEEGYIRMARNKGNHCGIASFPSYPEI

In the case of “Ac-[Tic][dOrn][Phe(2-Cl)]K-{ACC} (SMILES CC(=O)N1Cc2ccccc2C[C@H]1C(=O)N[C@H](CCCN)C(=O)N[C@@H](Cc1ccccc1Cl)C(=O)N[C@@H](CCCCN)C(=O)Nc1ccc2c(CC(N)=O)cc(=O)oc2c1) [Tic-DArg-Phe(2-Cl)-Lys]”, the “Relative substrate activity (rate of hydrolysis), cathepsin L” value (cathepsin L [1]) is reported as 134 RFU/s, the “Relative substrate activity (rate of hydrolysis), cathepsin V” value (cathepsin V [2]) is reported as 36.1 RFU/s and the “Relative substrate activity (rate of hydrolysis), cathepsin B” value (cathepsin B [3]) is reported as 3.1 RFU/s. The “Relative substrate activity (rate of hydrolysis), cathepsin S” value (cathepsin S [4]) was 10.3 RFU/s and the “Relative substrate activity (rate of hydrolysis), cathepsin K” value (cathepsin K [5]) was 0.0 RFU/s.
For “Ac-[Tic][Orn][Phe(4-F)]L-{ACC} (SMILES CC(=O)N1Cc2ccccc2C[C@H]1C(=O)N[C@@H](CCCN)C(=O)N[C@@H](Cc1ccc(F)cc1)C(=O)N[C@@H](CC(C)C)C(=O)Nc1ccc2c(CC(N)=O)cc(=O)oc2c1)”, the “Relative substrate activity (rate of hydrolysis), cathepsin L” value (cathepsin L [1]) was 684 RFU/s, the “Relative substrate activity (rate of hydrolysis), cathepsin V” value (cathepsin V [2]) was 31.7 RFU/s and the “Relative substrate activity (rate of hydrolysis), cathepsin B” value (cathepsin B [3]) was 15.0 RFU/s. For the same substance, the “Relative substrate activity (rate of hydrolysis), cathepsin S” value (cathepsin S [4]) was 4.7 RFU/s and the “Relative substrate activity (rate of hydrolysis), cathepsin K” value (cathepsin K [5]) was 0.0 RFU/s.
For “Ac-H[dQ][Phe(F5)]R-{ACC} (SMILES CC(=O)N[C@@H](Cc1c[nH]cn1)C(=O)N[C@H](CCC(N)=O)C(=O)N[C@@H](Cc1c(F)c(F)c(F)c(F)c1F)C(=O)N[C@@H](CCCNC(=N)N)C(=O)Nc1ccc2c(CC(N)=O)cc(=O)oc2c1)”, the “kcat/KM Cath-K” value (cathepsin K [6]) was less than 10 M⁻¹ s⁻¹, the “kcat/KM Cath-S” value (cathepsin S [7]) was less than 10 M⁻¹ s⁻¹ and the “kcat/KM Cath-B” value (cathepsin B [8]) was 130 M⁻¹ s⁻¹. For the same substance, the “kcat/KM Cath-L” value (cathepsin L [9]) was 336,900 M^-1s^-1 and the “kcat/KM Cath-V” value (cathepsin V [10]) was 1,070 M^-1s^-1.
With “Ac-[hArg][dV][Phe(F5)]R-{ACC} (SMILES CC(=O)N[C@@H](CCCCNC(=N)N)C(=O)N[C@@H](C(=O)N[C@@H](Cc1c(F)c(F)c(F)c(F)c1F)C(=O)N[C@@H](CCCNC(=N)N)C(=O)Nc1ccc2c(CC(N)=O)cc(=O)oc2c1)C(C)C)” the “kcat/KM Cath-K” value (cathepsin K [6]) was 96 M⁻¹ s⁻¹, the “kcat/KM Cath-S” value (cathepsin S [7]) was less than 10 M⁻¹ s⁻¹ and the “kcat/KM Cath-B” value (cathepsin B [8]) was 242 M⁻¹ s⁻¹. For the same substance, the “kcat/KM Cath-L” value (cathepsin L [9]) was 454,800 M^-1s^-1 and the “kcat/KM Cath-V” value (cathepsin V [10]) was 647 M⁻¹ s⁻¹.
For “Ac-H[dV][Phe(F5)]C(Bn)-{ACC} (SMILES CC(=O)N[C@@H](Cc1c[nH]cn1)C(=O)N[C@@H](C(=O)N[C@@H](Cc1c(F)c(F)c(F)c(F)c1F)C(=O)N[C@@H](CSCc1ccccc1)C(=O)Nc1ccc2c(CC(N)=O)cc(=O)oc2c1)C(C)C)”, the “kcat/KM Cath-K” value (cathepsin K [6]) was 190 M⁻¹ s⁻¹, the “kcat Cat K” value (cathepsin K [6]; [11]) was 0.00221 s⁻¹ and the “kcat/KM Cat K” value (cathepsin K [6]; [11]) was 190 M⁻¹ s⁻¹. The Km (cathepsin K [6]; Table S7, four independent experiments, S.D. below 15%, read-out: KM Cat K) was 11.5 µM, the “kcat/KM Cath-S” value (cathepsin S [7]) was less than 10 M⁻¹ s⁻¹ and the “kcat/KM Cat S” value (cathepsin S [7]) was less than 10 M⁻¹ s⁻¹. For the same substance, the “kcat/KM Cath-B” value (cathepsin B [8]) was 1,370 M^-1s^-1, the “kcat Cat B” value (cathepsin B [8]) was 0.0115 s⁻¹ and the “kcat/KM Cat B” value (cathepsin B [8]) was 1,370 M-1s-1. The Km (cathepsin B [8]) was 8.19 µM, the “kcat/KM Cath-L” value (cathepsin L [9]) was 732,900 M^-1s^-1 and the “kcat Cat L” value (cathepsin L [9]; [11]) was 4.21 s⁻¹. For the same substance, the “kcat/KM Cat L” value (cathepsin L [9]; [11]) was 732,900 M-1s-1, the Km (cathepsin L [9]; [11]) was 5.67 µM and the “kcat/KM Cath-V” value (cathepsin V [10]) was 1,250 M^-1s^-1. The “kcat Cat V” value (cathepsin V [10]) was 0.00971 s⁻¹, the “kcat/KM Cat V” value (cathepsin V [10]) was 1,250 M-1s-1 and the Km (cathepsin V [10]) was 7.76 µM.
In the case of “Ac-H[dT][Phe(F5)]R-{ACC} (SMILES CC(=O)N[C@@H](Cc1c[nH]cn1)C(=O)N[C@@H](C(=O)N[C@@H](Cc1c(F)c(F)c(F)c(F)c1F)C(=O)N[C@@H](CCCNC(=N)N)C(=O)Nc1ccc2c(CC(N)=O)cc(=O)oc2c1)[C@H](C)O)”, the “kcat/KM Cath-K” value (cathepsin K [6]) is reported as less than 10 M⁻¹ s⁻¹, the “kcat/KM Cat K” value (cathepsin K [6]; [11]) is reported as less than 10 M⁻¹ s⁻¹ and the “kcat/KM Cath-S” value (cathepsin S [7]) is reported as less than 10 M⁻¹ s⁻¹. The “kcat/KM Cat S” value (cathepsin S [7]) was less than 10 M⁻¹ s⁻¹, the “kcat/KM Cath-B” value (cathepsin B [8]) was 94 M⁻¹ s⁻¹ and the “kcat Cat B” value (cathepsin B [8]) was 0.00673 s⁻¹. The “kcat/KM Cat B” value (cathepsin B [8]) was 94 M⁻¹ s⁻¹, the Km (cathepsin B [8]) was 71.5 µM and the “kcat/KM Cath-L” value (cathepsin L [9]) was 729,200 M^-1s^-1. For the same substance, the “kcat Cat L” value (cathepsin L [9]; [11]) was 38.6 s⁻¹, the Km (cathepsin L [9]; [11]) was 53.1 µM and the “kcat/KM Cath-V” value (cathepsin V [10]) was 286 M⁻¹ s⁻¹. The “kcat Cat V” value (cathepsin V [10]) was 0.0178 s⁻¹, the “kcat/KM Cat V” value (cathepsin V [10]) was 286 M⁻¹ s⁻¹ and the Km (cathepsin V [10]) was 61.4 µM.
